Results from US10118902B2 (Sanford Burnham Prebys Medical Discovery Institute, priority 2014, dated 2018).

Target: neurotensin receptor 1 (NTR1) (Homo sapiens (Human), UniProt P30989)
Experiment: NTR1 dose response, high-content imaging beta-arrestin-GFP assay in NTR1-U2OS cells
Assay type: cell-based
Conditions: read-out: EC50

neurotensin receptor 1 (NTR1), sequence (P30989 whole entry, species assumed): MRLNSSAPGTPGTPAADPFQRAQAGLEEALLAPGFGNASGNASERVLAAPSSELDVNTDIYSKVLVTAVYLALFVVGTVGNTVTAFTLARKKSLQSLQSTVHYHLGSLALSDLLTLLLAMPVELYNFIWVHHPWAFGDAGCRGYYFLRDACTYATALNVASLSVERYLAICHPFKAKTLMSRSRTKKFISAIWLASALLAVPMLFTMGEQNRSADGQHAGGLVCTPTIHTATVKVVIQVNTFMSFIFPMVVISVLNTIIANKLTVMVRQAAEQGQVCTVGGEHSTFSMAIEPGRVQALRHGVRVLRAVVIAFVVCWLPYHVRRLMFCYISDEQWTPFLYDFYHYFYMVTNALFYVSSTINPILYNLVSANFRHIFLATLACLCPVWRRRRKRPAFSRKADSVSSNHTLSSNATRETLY

Structure (SMILES) | EC50
CN(CCN1CCCC1)c1ccc2nc(C3(C)CC3)nc(N3CCC(c4ccccc4N4CCC4)CC3)c2c1 [Example 36, [4-[4-(2-azetidin-1-yl-phenyl)-piperidin-1-yl]-2-(1-methyl-cyclopropyl)-quinazolin-6-yl]-methyl-(2-pyrrolidin-1-yl-ethyl)-amine] | > 10000 nM
CCCN(C)c1ccc2nc(C3CCC3)nc(N3CCC(c4ccccc4OC)CC3)c2c1 [Example 45, {2-cyclobutyl-4-[4-(2-methoxy-phenyl)-piperidin-1-yl]-quinazolin-6-yl}-methyl-propyl-amine] | > 10000 nM
COC(=O)Cc1c(C)nc(C2CC2)nc1N1CCC(c2ccccc2OC)CC1 [Example 156, Methyl 2-(2-cyclopropyl-4-(4-(2-methoxyphenyl)piperidin-1-yl)-6-methylpyrimidin-5-yl)acetate] | > 10000 nM
CCCN(C)c1cccc2c(N3CCC(c4ccccc4OC)CC3)nc(C3CC3)nc12 [Example 128, {2-cyclopropyl-4-[4-(2-methoxy-phenyl)-piperidin-1-yl]-quinazolin-8-yl}-methyl-propyl-amine] | > 10000 nM
COCCN(C)c1ccc2nc(-c3ccccc3)nc(N3CCC(c4ccccc4OC)CC3)c2c1 [Example 145, (2-methoxy-ethyl)-{4-[4-(2-methoxy-phenyl)-piperidin-1-yl]-2-phenyl-quinazolin-6-yl}-methyl-amine] | > 10000 nM
CCCN(C)c1ccc2c(N3CCC(c4ccccc4OC)CC3)nc(C3CC3)nc2c1 [Example 135, 2-cyclopropyl-4-(4-(2-methoxyphenyl)piperidin-1-yl)-N-methyl-N-propylquinazolin-7-amine] | > 10000 nM
COc1ccccc1C1CCN(c2nc(C3CC3)nc3ccc(CN(C)C)cc23)CC1 [Example 86, {2-cyclopropyl-4-[4-(2-methoxy-phenyl)-piperidin-1-yl]-quinazolin-6-ylmethyl}-dimethyl-amine] | > 10000 nM
CCCN(C)c1ccc2nc(C3CC3)nc(N3CCN(C4CCCC4OC)CC3)c2c1 (stereo not drawn) [Example 185, 2-cyclopropyl-4-(4-(2-methoxycyclopentyl)piperazin-1-yl)-N-methyl-N-propylquinazolin-6-amine] | > 10000 nM
COc1ccccc1C1CCN(c2nc(C3CC3)nc3c(N(C)CCN4CCOCC4)cccc23)CC1 [Example 129, {2-cyclopropyl-4-[4-(2-methoxy-phenyl)-piperidin-1-yl]-quinazolin-8-yl}-methyl-(2-morpholin-4-yl-ethyl)-amine] | > 10000 nM
COc1ccccc1C1CCN(c2nc(-c3ccccc3)nc3ccc(N(C)CCN4CCOCC4)cc23)CC1 [Example 147, {4-[4-(2-methoxy-phenyl)-piperidin-1-yl]-2-phenyl-quinazolin-6-yl}-methyl-(2-morpholin-4-yl-ethyl)-amine] | > 10000 nM
COc1nccnc1C1CCN(c2nc(C3(O)CCC3)nc3ccc(N(C)CCO)cc23)CC1 [Example 221, 1-(6-((2-hydroxyethyl)(methyl)amino)-4-(4-(3-methoxypyrazin-2-yl)piperidin-1-yl)quinazolin-2-yl)cyclobutanol] | > 10000 nM
COc1ccccc1C1CCN(c2nc(C)c(CC(=O)N(C)CCO)c(C3CC3)n2)CC1 [Example 163, 2-{4-cyclopropyl-2-[4-(2-methoxy-phenyl)-piperidin-1-yl]-6-methyl-pyrimidin-5-yl}-N-(2-hydroxy-ethyl)-N-methyl-acetamide] | > 10000 nM
CCCN(C)C(=O)Cc1c(C)nc(N2CCC(c3ccccc3OC)CC2)nc1C1CC1 [Example 162, 2-{4-cyclopropyl-2-[4-(2-methoxy-phenyl)-piperidin-1-yl]-6-methyl-pyrimidin-5-yl}-N-methyl-N-propyl-acetamide] | > 10000 nM
CCCN(C)c1ccc2nc(C3CC3)nc(NC3CCCC3N(C)c3ccccc3OC)c2c1 (stereo not drawn) [Example 152, 2-cyclopropyl-N4-{2-[(2-methoxy-phenyl)-methyl-amino]-cyclopentyl}-N6-methyl-N6-propyl-quinazoline-4,6-diamine] | > 10000 nM
CN(CCO)c1ccc2nc(C3CC3)nc(N3CCN(C4CCCC4O)CC3)c2c1 (stereo not drawn) [Example 140, 2-(4-{2-cyclopropyl-6-[(2-hydroxy-ethyl)-methyl-amino]-quinazolin-4-yl}-piperazin-1-yl)-cyclopentanol] | > 10000 nM
CN(C)c1ccccc1C1CCN(c2nc(C3CC3)nc3ccc(N(C)CCN4CCOCC4)cc23)CC1 [Example 12, {2-Cyclopropyl-4-[4-(2-dimethylamino-phenyl)-piperidin-1-yl]-quinazolin-6-yl}-methyl-(2-morpholin-4-yl-ethyl)-amine] | 2000 to 10000 nM
CCCN(C)C(=O)Cc1cnc(C2CC2)nc1N1CCC(c2ccccc2OC)CC1 [Example 165, 2-{2-cyclopropyl-4-[4-(2-methoxy-phenyl)-piperidin-1-yl]-pyrimidin-5-yl}-N-methyl-N-propyl-acetamide] | > 10000 nM
COc1ccccc1C1CCN(c2nc(C3(F)CCC3)nc3c(Cl)cc(N4CC[C@@H](O)C4)cc23)CC1 [Example 182] | 2000 to 10000 nM
COC1CCCCC1C1CCN(c2nc(C3(F)CC3)nc3ccc(N(C)CCO)cc23)CC1 (stereo not drawn) [Example 189, 2-({2-(1-Fluoro-cyclopropyl)-4-[4-(2-methoxy-cyclohexyl)-piperidin-1-yl]-quinazolin-6-yl}-methyl-amino)-ethanol] | > 10000 nM
COc1ccccc1C1CCN(c2nc(C3(C)CCCC3)nc3ccc(N(C)CCN4CCOCC4)cc23)CC1 [Example 52] | 2000 to 10000 nM
COc1ccccc1C1CCN(c2nc(-c3ccccc3)nc3ccc(N(C)CCO)cc23)CC1 [Example 144, 2-({4-[4-(2-methoxy-phenyl)-piperidin-1-yl]-2-phenyl-quinazolin-6-yl}-methyl-amino)-ethanol] | 2000 to 10000 nM

Continued, values first:

EC50 | Structure (SMILES)
500 to 2000 nM | COc1ccccc1C1CCN(c2nc(C3CC3)nc3ccc(N4CCC(O)C4)cc23)CC1 (stereo not drawn) [Example 79, 1-{2-cyclopropyl-4-[4-(2-methoxy-phenyl)-piperidin-1-yl]-quinazolin-6-yl}-pyrrolidin-3-ol]
500 to 2000 nM | COc1ccsc1C1CCN(c2nc(C3CC3)nc3ccc(N(C)CCO)cc23)CC1 [Example 138, 2-((2-cyclopropyl-4-(4-(3-methoxythiophen-2-yl)piperidin-1-yl)quinazolin-6-yl)(methyl)amino)ethanol]
500 to 2000 nM | COc1ccc(F)cc1C1CCN(c2nc(C3CC3)nc3cc(F)c(N(C)CCO)cc23)CC1 [Example 111, 2-({2-cyclopropyl-7-fluoro-4-[4-(5-fluoro-2-methoxy-phenyl)-piperidin-1-yl]-quinazolin-6-yl}-methyl-amino)-ethanol]
500 to 2000 nM | CCN(C)c1ccc2nc(C3CC3)nc(N3CCN(c4ccccc4N4CCC4)CC3)c2c1 [Example 2, {4-[4-(2-azetidin-1-yl-phenyl)-piperazin-1-yl]-2-cyclopropyl-quinazolin-6-yl}-ethyl-methyl-amine]
500 to 2000 nM | CN(C)c1ccc2nc(C3CC3)nc(N3CCN(c4ccccc4N4CCC4)CC3)c2c1 [Example 1, {4-[4-(2-azetidin-1-yl-phenyl)-piperazin-1-yl]-2-cyclopropyl-quinazolin-6-yl}-dimethyl-amine]
< 500 nM | COc1ccccc1C1CCN(c2nc(C3CC3)nc3cc(C)c(N(C)CCO)cc23)CC1 [Example 117, 2-({2-cyclopropyl-4-[4-(2-methoxy-phenyl)-piperidin-1-yl]-7-methyl-quinazolin-6-yl}-methyl-amino)-ethanol]
500 to 2000 nM | COc1ccccc1C1CCN(c2nc(C3CC3)nc3ccc(N4CC[C@@H](OC)C4)cc23)CC1 [Example 176, (R)-2-cyclopropyl-4-[4-(2-methoxy-phenyl)-piperidin-1-yl]-6-(3-methoxy-pyrrolidin-1-yl)-quinazoline]
2000 to 10000 nM | COc1ccccc1C1CCN(c2nc(C3(C(F)(F)F)CCCC3)nc3ccc(N(C)CCO)cc23)CC1 [Example 55, 2-{[4-[4-(2-methoxy-phenyl)-piperidin-1-yl]-2-(1-trifluoromethyl-cyclopentyl)-quinazolin-6-yl]-methyl-amino}-ethanol]
< 500 nM | COc1ccccc1C1CCN(c2nc(C3CC3)nc3c(F)cc(N(C)CCO)cc23)CC1 [Example 133, 2-((2-cyclopropyl-8-fluoro-4-(4-(2-methoxyphenyl)piperidin-1-yl)quinazolin-6-yl)(methyl)amino)ethanol]
500 to 2000 nM | CN(C)c1ccccc1C1CCN(c2nc(C3(F)CCC3)nc3ccc(N(C)CCN4CCOCC4)cc23)CC1 [Example 62, [4-[4-(2-dimethylamino-phenyl)-piperidin-1-yl]-2-(1-fluoro-cyclobutyl)-quinazolin-6-yl]-methyl-(2-morpholin-4-yl-ethyl)-amine]
2000 to 10000 nM | COc1ccccc1N1CC2(C1)CN(c1nc(C3CC3)nc3ccc(N(C)CCO)cc13)C2 [Example 99, 2-({2-cyclopropyl-4-[6-(2-methoxy-phenyl)-2,6-diaza-spiro [3.3]hept-2-yl]-quinazolin-6-yl}-methyl-amino)-ethanol]
< 500 nM | CN(C)c1ccccc1C1CCN(c2nc(C3CC3)nc3cc(F)c(N(C)CCO)cc23)CC1 [Example 120, 2-({2-cyclopropyl-4-[4-(2-dimethylamino-phenyl)-piperidin-1-yl]-7-fluoro-quinazolin-6-yl}-methyl-amino)-ethanol]
< 500 nM | COc1ccccc1C1CCN(c2nc(C3(F)CC3)nc3ccc(N(C)CCO)cc23)CC1 [Example 15, 2-({2-(1-Fluoro-cyclopropyl)-4-[4-(2-methoxy-phenyl)-piperidin-1-yl]-quinazolin-6-yl}-methyl-amino)-ethanol]
2000 to 10000 nM | CN(C)c1ccccc1C1CCN(c2nc(C3CCCC3)nc3ccc(N(C)CCN4CCOCC4)cc23)CC1 [Example 74, {2-cyclopentyl-4-[4-(2-dimethylamino-phenyl)-piperidin-1-yl]-quinazolin-6-yl}-methyl-(2-morpholin-4-yl-ethyl)-amine]
500 to 2000 nM | COc1ccccc1C1CCN(c2nc(C3(C)CCC3)nc3ccc(N(C)CCO)cc23)CC1 [Example 70, 2-{[4-[4-(2-Methoxy-phenyl)-piperidin-1-yl]-2-(1-methyl-cyclobutyl)-quinazolin-6-yl]-methyl-amino}-ethanol]
